{
  "source": "the C3SDB collision cross section collection",
  "note": "Counter-ions that a name gives are not always drawn.",
  "data": [
    {"details": "[M+H-H2O]+; instrument: TW; calibrated with polyalanine and drug standards", "units": {"collision cross section (N2)": "Å²"}, "values": [
      {"smiles": "COC(=O)C1=C(C)NC(C)=C(C(=O)OC)C1c1ccccc1[N+](=O)[O-]", "note": "[NIFEDIPINE]", "collision cross section (N2)": 169.4},
      {"smiles": "C=C1C(=O)O[C@@H]2[C@H]3O[C@]3(C)CC/C=C(\\C)CC[C@@H]12", "note": "[PARTHENOLIDE]", "collision cross section (N2)": 150.7},
      {"smiles": "COc1cc([C@@H]2c3cc4c(cc3[C@H](O)[C@H]3COC(=O)[C@@H]23)OCO4)cc(OC)c1OC", "note": "[PICROPODOPHYLLIN]", "collision cross section (N2)": 190.9}
    ]},
    {"details": "[M+H]+; instrument: TW; calibrated with polyalanine and drug standards", "units": {"collision cross section (N2)": "Å²"}, "values": [
      {"smiles": "CO[C@@]12[C@H](COC(N)=O)C3=C(C(=O)C(C)=C(N)C3=O)N1C[C@@H]1N[C@@H]12", "note": "[MITOMYCIN C]", "collision cross section (N2)": 169.5},
      {"smiles": "C[C@H]1C(=O)O[C@@H]2CCN3CC=C(COC(=O)[C@](C)(O)[C@]1(C)O)[C@H]23", "note": "[MONOCROTALINE]", "collision cross section (N2)": 172.9},
      {"smiles": "O=c1c(O)c(-c2ccc(O)cc2O)oc2cc(O)cc(O)c12", "note": "[MORIN]", "collision cross section (N2)": 162.7},
      {"smiles": "COc1ccc2c(c1)O[C@@H]1COc3cc(OC)c(OC)cc3[C@@H]1C2=O", "note": "[MUNDOSERONE]", "collision cross section (N2)": 175.1},
      {"smiles": "COc1c(-c2coc3cc4c(cc3c2=O)CC(OC(C)=O)C(C)(C)O4)ccc2c1C=CC(C)(C)O2", "note": "(stereo unspecified) [MUNDULONE ACETATE]", "collision cross section (N2)": 222.7},
      {"smiles": "COc1c(-c2coc3cc4c(cc3c2=O)CC(O)C(C)(C)O4)ccc2c1C=CC(C)(C)O2", "note": "(stereo unspecified) [MUNDULONE]", "collision cross section (N2)": 210.9},
      {"smiles": "C/C(=C\\C(=O)OCCCCCCCCC(=O)O)C[C@@H]1OC[C@H](C[C@@H]2O[C@H]2[C@@H](C)[C@H](C)O)[C@@H](O)[C@H]1O", "note": "[MUPIROCIN]", "collision cross section (N2)": 214.8},
      {"smiles": "O=C(O)c1ccccc1Nc1ccccc1", "note": "[N-PHENYLANTHRANILIC ACID]", "collision cross section (N2)": 144.5},
      {"smiles": "COc1ccc2cc(CCC(C)=O)ccc2c1", "note": "[NABUMETONE]", "collision cross section (N2)": 148},
      {"smiles": "NC(=O)c1ccc[n+]([C@@H]2O[C@H](COP(=O)([O-])OP(=O)(O)OC[C@H]3O[C@@H](n4cnc5c(N)ncnc54)[C@H](O)[C@@H]3O)[C@@H](O)[C@H]2O)c1", "note": "[NADIDE]", "collision cross section (N2)": 227},
      {"smiles": "COc1ccc2cc([C@H](C)CO)ccc2c1", "note": "[NAPROXOL]", "collision cross section (N2)": 140},
      {"smiles": "O=C1CC(c2ccc(O)cc2)Oc2cc(O)cc(O)c21", "note": "(stereo unspecified) [NARINGENIN]", "collision cross section (N2)": 160.6},
      {"smiles": "CC(C)C1CCC(C(=O)N[C@H](Cc2ccccc2)C(=O)O)CC1", "note": "(stereo partly specified) [NATEGLINIDE]", "collision cross section (N2)": 178.6},
      {"smiles": "O=C(O)c1cccnc1", "note": "[NIACIN]", "collision cross section (N2)": 120.3},
      {"smiles": "O=C(CCNNC(=O)c1ccncc1)NCc1ccccc1", "note": "[NIALAMIDE]", "collision cross section (N2)": 174.3},
      {"smiles": "CO[C@]12C[C@@H](COC(=O)c3cncc(Br)c3)CN(C)[C@@H]1Cc1cn(C)c3cccc2c13", "note": "[NICERGOLINE]", "collision cross section (N2)": 213.8},
      {"smiles": "O=C(O)c1cccnc1Nc1cccc(C(F)(F)F)c1", "note": "[NIFLUMIC ACID]", "collision cross section (N2)": 159.4},
      {"smiles": "O=C(O)C1CCCNC1", "note": "(stereo unspecified) [NIPECOTIC ACID]", "collision cross section (N2)": 124.6},
      {"smiles": "COC(=O)C1=C(C)NC(C)=C(C(=O)OCC(C)C)C1c1ccccc1[N+](=O)[O-]", "note": "(stereo unspecified) [NISOLDIPINE]", "collision cross section (N2)": 187.2},
      {"smiles": "CN/C(=C\\[N+](=O)[O-])NCCSCc1csc(CN(C)C)n1", "note": "[NIZATIDINE]", "collision cross section (N2)": 169.1},
      {"smiles": "COC(=O)Nc1nc2ccc(C(=O)c3cccs3)cc2[nH]1", "note": "[NOCODAZOLE]", "collision cross section (N2)": 168.7},
      {"smiles": "C#C[C@]1(O)CC[C@H]2[C@@H]3CCC4=C(CCC(=O)C4)[C@H]3CC[C@@]21C", "note": "[NORETHYNODREL]", "collision cross section (N2)": 174.6},
      {"smiles": "c1ccc2c(c1)[nH]c1cnccc12", "note": "[NORHARMAN]", "collision cross section (N2)": 132.2},
      {"smiles": "N[C@@H](COCc1ccccc1)C(=O)O", "note": "[O-BENZYL-l-SERINE]", "collision cross section (N2)": 142.5},
      {"smiles": "COC1=CC(=O)C(O)=C/C1=C\\C=C\\c1ccccc1", "note": "[OBTUSAQUINONE]", "collision cross section (N2)": 155.1},
      {"smiles": "CC(C)CCCC(C)N", "note": "(stereo unspecified) [OCTODRINE]", "collision cross section (N2)": 134.7},
      {"smiles": "CCCc1nc(C(C)(C)O)c(C(=O)OCc2oc(=O)oc2C)n1Cc1ccc(-c2ccccc2-c2nn[nH]n2)cc1", "note": "[OLMESARTAN MEDOXOMIL]", "collision cross section (N2)": 225},
      {"smiles": "CC(C)=CCc1c2c(c3occ(-c4ccc(O)cc4)c(=O)c3c1O)C=CC(C)(C)O2", "note": "[OSAJIN]", "collision cross section (N2)": 201.4},
      {"smiles": "CCOC(=O)C1=C[C@@H](OC(CC)CC)[C@H](NC(C)=O)[C@@H](N)C1", "note": "[OSELTAMIVIR]", "collision cross section (N2)": 180.7},
      {"smiles": "COC[C@]12CN(C=O)C3[C@@H]4[C@H](OC)C1[C@]3(C1CC3(O)C(OC)C(O)C4(OC(C)=O)C1C3OC(=O)c1ccccc1)[C@@H](OC)C[C@H]2O", "note": "(stereo partly specified) [OXONITINE]", "collision cross section (N2)": 236.2},
      {"smiles": "COc1ccc(C(=O)c2ccccc2)c(O)c1", "note": "[OXYBENZONE]", "collision cross section (N2)": 146.5},
      {"smiles": "CCCCC1C(=O)N(c2ccccc2)N(c2ccc(O)cc2)C1=O", "note": "(stereo unspecified) [OXYPHENBUTAZONE]", "collision cross section (N2)": 177.2},
      {"smiles": "COc1ccc(C(C)=O)c(O)c1", "note": "[PAEONOL]", "collision cross section (N2)": 124.9},
      {"smiles": "CC(C)(CO)[C@@H](O)C(=O)NCCC(=O)NCCSSCCNC(=O)CCNC(=O)[C@H](O)C(C)(C)CO", "note": "[PANTETHINE]", "collision cross section (N2)": 222.5},
      {"smiles": "CC(C)(CO)[C@@H](O)C(=O)NCCC(=O)[O-]", "note": "[PANTOTHENIC ACID(d) Na salt]", "collision cross section (N2)": 146.7},
      {"smiles": "O=C(O)CN(CCN(CC(=O)O)CC(=O)O)CCN(CC(=O)O)CC(=O)O", "note": "[PENTETIC ACID]", "collision cross section (N2)": 180.2},
      {"smiles": "CC(=O)CCCCn1c(=O)c2c(ncn2C)n(C)c1=O", "note": "[PENTOXIFYLLINE]", "collision cross section (N2)": 158.5},
      {"smiles": "C=C(C)[C@H]1CC=C(C(=O)O)CC1", "note": "[PERILLIC ACID (-)]", "collision cross section (N2)": 124.9},
      {"smiles": "OCCN1CCN(CCCN2c3ccccc3Sc3ccc(Cl)cc32)CC1", "note": "[PERPHENAZINE]", "collision cross section (N2)": 192},
      {"smiles": "CC(C)=CCc1c(O)cc2oc(C)cc(=O)c2c1O", "note": "[PEUCENIN]", "collision cross section (N2)": 154.2},
      {"smiles": "CC(=O)c1c(O)cc(O)cc1O", "note": "[PHLORACETOPHENONE]", "collision cross section (N2)": 129},
      {"smiles": "O=c1[nH]c2ccccc2n1C1CCN(CCCC(c2ccc(F)cc2)c2ccc(F)cc2)CC1", "note": "[PIMOZIDE]", "collision cross section (N2)": 212.6},
      {"smiles": "CCn1cc(C(=O)O)c(=O)c2cnc(N3CCNCC3)nc21", "note": "[PIPEMIDIC ACID]", "collision cross section (N2)": 171},
      {"smiles": "Cc1nc2ccccn2c(=O)c1CCN1CCC(C(=O)c2ccc(F)cc2)CC1", "note": "[PIRENPERONE]", "collision cross section (N2)": 196.8},
      {"smiles": "CC1=CC(=O)c2c(O)cccc2C1=O", "note": "[PLUMBAGIN]", "collision cross section (N2)": 124.1}
    ]},
    {"details": "[M+Na]+; instrument: TW; calibrated with polyalanine and drug standards", "units": {"collision cross section (N2)": "Å²"}, "values": [
      {"smiles": "CC[C@@]1([C@@H]2O[C@@H]([C@H]3O[C@@](O)(CO)[C@H](C)C[C@@H]3C)C[C@@H]2C)CC[C@H]([C@]2(C)CC[C@]3(C[C@H](O)[C@@H](C)[C@@H]([C@@H](C)[C@@H](OC)[C@H](C)C(=O)O)O3)O2)O1", "note": "[MONENSIN]", "collision cross section (N2)": 245.1},
      {"smiles": "C[C@@H]1O[C@@H](O[C@H]2[C@H](Oc3cc(O)c4c(c3)O[C@H](c3ccc(O)cc3)CC4=O)O[C@H](CO)[C@@H](O)[C@@H]2O)[C@H](O)[C@H](O)[C@H]1O", "note": "[NARINGIN]", "collision cross section (N2)": 233.5},
      {"smiles": "CC(=O)OCC(OC(C)=O)C(OC(C)=O)C(OC(C)=O)C(OC(C)=O)C(COC(C)=O)OC(C)=O", "note": "(stereo unspecified) [PERSEITOL HEPTAACETATE]", "collision cross section (N2)": 205.7}
    ]}
  ]
}
